Measurements from patent US10441597B2, “Ciclesonide for the treatment of airway disease in horses” (Boehringer Ingelheim Vetmedica GmbH, priority 2012, dated 2019).
Entries after “also recorded” stand apart in the source; their conditions may differ.

Key:
RAO horses [1] = experiment: Moldy hay challenge study in RAO horses: lung function variables (transpulmonary pressure, lung resistance, lung elastance); assay type: in vivo, horse; conditions: for Difference in lung function variables versus dexamethasone group: after 7 or 14 days; for Efficacy relative to dexamethasone measured in lung function variables and clinical score: moldy hay challenge model, RESPIMAT inhaler with Equine Inhaler device, examples 1 and 3
Text: (§1) The commercially available […]® is used in the study.

RAO horses [2] = experiment: Moldy hay challenge study in RAO horses: clinical score (breathing effort score, weighted clinical score); assay type: in vivo, horse
Text: as §1

[3] = Concentration of ciclesonide and metabolite in equine plasma (HPLC-MS/MS); conditions: for Ciclesonide concentration in equine plasma: 2nd ciclesonide study, n=8 mean
cortisol levels = conditions: humans; after aerosol administration/inhalation; cited from earlier work
[4] = test system: segmented neutrophils and lymphocytes; experiment: Moldy hay challenge study in RAO horses: segmented neutrophil and lymphocyte counts; assay type: in vivo, horse; conditions: for Lymphocytes / Segmented neutrophils: nozzle B, n=7 mean
Method: as §1
The segmented neutrophil counts and the lymphocyte counts are determined in the studies above: ciclesonide treatment versus dexamethasone treatment.

serum cortisol = experiment: Moldy hay challenge study in RAO horses: serum cortisol; conditions: for Serum cortisol levels: any measured time point
IAD horse = experiment: Impulse oscillometry lung function in one IAD horse (4th ciclesonide study); assay type: in vivo; conditions: 2700 μg ciclesonide twice daily for 14 days
Text: Ciclesonide is investigated in a baseline controlled, blinded study examining one (1) IAD horse. […] Lung function variables using the impulse oscillometry system (respiratory resistance (Rrs) and reactance (Xrs) are examined during the study.

[5] = 1st ciclesonide study, ciclesonide 450/900/1800 μg/horse twice daily
[6] = 2nd ciclesonide study, ciclesonide 1687.5 B/2700 A/2700 B μg twice daily
[7] = 3rd ciclesonide study, ciclesonide groups
[8] = D 0, 2700 μg ciclesonide/horse twice daily inhaled 14 days, 3rd ciclesonide study
[9] = D 0, 3712.5 μg ciclesonide/horse once daily in the evening inhaled 14 days, 3rd ciclesonide study
[10] = D 0, 3712.5 μg ciclesonide/horse once daily in the morning inhaled 14 days, 3rd ciclesonide study
[11] = D 14, 2700 μg ciclesonide/horse twice daily inhaled 14 days, 3rd ciclesonide study
[12] = D 14, 3712.5 μg ciclesonide/horse once daily in the evening inhaled 14 days, 3rd ciclesonide study
[13] = D 14, 3712.5 μg ciclesonide/horse once daily in the morning inhaled 14 days, 3rd ciclesonide study
[14] = D 21, 2700 μg ciclesonide/horse twice daily inhaled 14 days, 3rd ciclesonide study
[15] = D 21, 3712.5 μg ciclesonide/horse once daily in the evening inhaled 14 days, 3rd ciclesonide study
[16] = D 21, 3712.5 μg ciclesonide/horse once daily in the morning inhaled 14 days, 3rd ciclesonide study
[17] = frequencies 0.2 to 2 Hz, in contrast to pretreatment values

For CCCC1O[C@@H]2C[C@H]3[C@@H]4CCC5=CC(=O)C=C[C@]5(C)[C@H]4[C@@H](O)C[C@]3(C)[C@]2(C(=O)CO)O1 (stereo partly shown) [budesonide], the “All lung function variables compared to pretreatment values” (RAO horses [1]; Budesonide study, budesonide 1800 μg/horse ex RESPIMAT twice daily inhaled, after 14 days, p≤0.0001) was “significantly reduced”, the “Difference in lung function variables versus dexamethasone group” value (RAO horses [1]; Budesonide study, budesonide 1800 μg/horse twice daily) was “no significant difference” and the “Efficacy relative to dexamethasone measured in lung function variables and clinical score” value (RAO horses [1]) was “comparable efficacy”. The “Clinical score compared to pretreatment values” (RAO horses [2]; Budesonide study, all three budesonide groups (450/900/1800 μg/horse twice daily), after 7 and 14 days, p=0.002 to p<0.0001) was “significantly reduced” and the “Difference in clinical score versus dexamethasone group” value (RAO horses [2]; Budesonide study, budesonide 900 and 1800 μg/horse twice daily, after 7 and 14 days) was “no significant difference”.

For CC(C)C(=O)OCC(=O)[C@@]12O[C@H](C3CCCCC3)O[C@@H]1C[C@H]1[C@@H]3CCC4=CC(=O)C=C[C@]4(C)[C@H]3[C@@H](O)C[C@@]12C [ciclesonide, (11β,16α)-16,17-[[(R)-Cyclohexylmethylene]bis(oxy)]-11-hydroxy-21-(2-methyl-1-oxopropoxy)pregna-1,4-diene-3,20-dione], the “Ciclesonide concentration in equine plasma” value (“Ciclesonide concentration” below) ([3]; day 1, 0 min, ciclesonide 2700 μg nozzle B twice daily inhaled) was less than 0.500 nmol/L, the “Ciclesonide concentration” value ([3]; day 1, 1 h, ciclesonide 2700 μg nozzle B twice daily inhaled) was less than 0.500 nmol/L and the “Ciclesonide concentration” value ([3]; day 1, 2 h, ciclesonide 1687.5 μg nozzle B twice daily inhaled) was less than 0.500 nmol/L. The “Ciclesonide concentration” value ([3]; day 1, 2 h, ciclesonide 2700 μg nozzle B twice daily inhaled) was less than 0.500 nmol/L, the “Ciclesonide concentration” value ([3]; day 1, 4 h, ciclesonide 1687.5 μg nozzle B twice daily inhaled) was less than 0.500 nmol/L and the “Ciclesonide concentration” value ([3]; day 1, 4 h, ciclesonide 2700 μg nozzle B twice daily inhaled) was less than 0.500 nmol/L. For the same molecule, the “Ciclesonide concentration” value ([3]; day 11, 0 min, ciclesonide 2700 μg nozzle A twice daily inhaled) was less than 0.500 nmol/L, the “Ciclesonide concentration” value ([3]; day 11, 0 min, ciclesonide 2700 μg nozzle B twice daily inhaled) was less than 0.500 nmol/L and the “Ciclesonide concentration” value ([3]; day 11, 1 h, ciclesonide 2700 μg nozzle A twice daily inhaled) was less than 0.500 nmol/L. The “Ciclesonide concentration” value ([3]; day 11, 1 h, ciclesonide 2700 μg nozzle B twice daily inhaled) was less than 0.500 nmol/L, the “Ciclesonide concentration” value ([3]; day 11, 2 h, ciclesonide 2700 μg nozzle A twice daily inhaled) was less than 0.500 nmol/L and the “Ciclesonide concentration” value ([3]; day 11, 2 h, ciclesonide 2700 μg nozzle B twice daily inhaled) was less than 0.500 nmol/L. For the same molecule, the “Ciclesonide concentration” value ([3]; day 11, 4 h, ciclesonide 2700 μg nozzle A twice daily inhaled) was less than 0.500 nmol/L, the “Ciclesonide concentration” value ([3]; day 11, 4 h, ciclesonide 2700 μg nozzle B twice daily inhaled) was less than 0.500 nmol/L and the “Conversion of ciclesonide into the effective molecule C21-C21-desisobutyrylciclesonide” value ([3]; in horses, example 5) was “can be converted”. The Measured cortisol levels (cortisol levels) was “no or clinically not relevant cortisol suppression”, the “Counts of lymphocytes after administration” value (“Counts of lymphocytes” for short) [4, 5] was “no change” and the “Counts of segmented neutrophils after administration” value (“Counts of segmented neutrophils” below) [4, 5] was “no or minor increase”. The “Counts of lymphocytes” value [4, 6] was “no change”, the “Counts of segmented neutrophils” value [4, 6] was “no or minor increase” and the “Counts of lymphocytes” value [4, 7] was “no change”. For the same molecule, the “Counts of segmented neutrophils” value [4, 7] was “no or minor increase”, the Lymphocytes [4, 8] was 2.55e+09 L⁻¹ and the Segmented neutrophils [4, 8] was 3.97e+09 L⁻¹. For the same molecule, the Lymphocytes [4, 9] was 2.55e+09 L⁻¹, the Segmented neutrophils [4, 9] was 3.73e+09 L⁻¹ and the Lymphocytes [4, 10] was 2.21e+09 L⁻¹. It also gave a Segmented neutrophils [4, 10] of 4.37e+09 L⁻¹, a Lymphocytes [4, 11] of 2.54e+09 L⁻¹ and a Segmented neutrophils [4, 11] of 4.57e+09 L⁻¹. It also gave a Lymphocytes [4, 12] of 2.43e+09 L⁻¹, a Segmented neutrophils [4, 12] of 4.37e+09 L⁻¹ and a Lymphocytes [4, 13] of 2.48e+09 L⁻¹. For the same molecule, the Segmented neutrophils [4, 13] was 4.45e+09 L⁻¹, the Lymphocytes [4, 14] was 2.49e+09 L⁻¹ and the Segmented neutrophils [4, 14] was 3.47e+09 L⁻¹. The Lymphocytes [4, 15] was 2.48e+09 L⁻¹, the Segmented neutrophils [4, 15] was 3.41e+09 L⁻¹ and the Lymphocytes [4, 16] was 2.66e+09 L⁻¹. The Segmented neutrophils [4, 16] was 3.75e+09 L⁻¹, the “Alteration in the immune system measured by neutrophilia and lymphopenia” value ([4]; ciclesonide, treatment for two weeks with different dose levels, 1st and 2nd ciclesonide studies (Table 2)) was “no alteration; also recorded: not observed” and the Serum cortisol levels (serum cortisol; 1st ciclesonide study, any ciclesonide group (450/900/1800 μg/horse twice daily)) was “no significant reduction”. The Serum cortisol levels (serum cortisol; 2nd ciclesonide study, any ciclesonide group (1687.5 B/2700 A/2700 B μg twice daily)) was “no significant reduction”, the Serum cortisol levels (serum cortisol; 3rd ciclesonide study, any ciclesonide group (2700 μg twice daily/3712.5 μg morning/3712.5 μg evening)) was “no significant reduction” and the “Cortisol level compared to values prior to treatment” value (serum cortisol; after administration of the highest ciclesonide dose, example 3) was “does not change significantly”. The “Serum cortisol level of horses” value (serum cortisol; ciclesonide, treatment for two weeks with different dose levels, Examples 2-3) was “no decrease”, the “Mean respiratory reactance in inspiration versus expiration” value (IAD horse; [17]) was “not different” and the “Mean respiratory resistance in inspiration versus expiration” value (IAD horse; [17]) was “not different”. For the same molecule, the “Mean respiratory resistance (Rrs) compared to pretreatment values” (IAD horse; frequencies 0.2 to 20 Hz, mean of three measurements) was “decreased”, the “Mean respiratory reactance (Xrs) compared to pretreatment values” (IAD horse; frequencies 5 to 10 Hz, mean of three measurements) was “decreased” and the “ΔPL and EL compared to pretreatment values” (RAO horses [1]; 1st ciclesonide study, ciclesonide 1800 μg/horse twice daily inhaled (only the highest dose), after 14 days, p=0.0005 and p=0.0004) was “statistically significant reduction”. For the same molecule, the “Difference in ΔPL and EL versus dexamethasone group” value (RAO horses [1]; 1st ciclesonide study, ciclesonide 1800 μg/horse twice daily, after 14 days) was “no significant difference”, the “All lung function variables compared to pretreatment values” (RAO horses [1]; 2nd ciclesonide study, all ciclesonide groups (1687.5 μg nozzle B/2700 μg nozzle A/2700 μg nozzle B twice daily), after 14 days, p=0.0009 to p<0.0001) was “significantly reduced” and the “Difference in lung function variables versus dexamethasone group” value (RAO horses [1]; 2nd ciclesonide study, all ciclesonide groups) was “no significant difference”. The “Difference in lung function variables (ΔPL, RL) versus placebo group” value (RAO horses [1]; 3rd ciclesonide study, all ciclesonide groups, after 14 days, p<0.0001 (2700 μg, 3712.5 μg evening), p=0.0005 ΔPL / p=0.0003 RL (3712.5 μg morning)) was “significant difference”, the “Change in ΔPL compared to pretreatment values” (RAO horses [1]; 3rd ciclesonide study, ciclesonide 2700 μg twice daily, after 7 days, p<0.0001) was “significantly reduced” and the “ΔPL and RL compared to pretreatment values” (RAO horses [1]; 3rd ciclesonide study, ciclesonide 2700 μg twice daily, after 14 days, p<0.0001) was “significantly reduced”. For the same molecule, the “Reduction of ΔPL and RL compared to pretreatment values” (RAO horses [1]; 3rd ciclesonide study, ciclesonide 2700 μg, after 7 days, p<0.0001) was “statistically significant”, the “Reduction of RL compared to pretreatment values” (RAO horses [1]; 3rd ciclesonide study, ciclesonide 2700 μg, after 7 days, p=0.0002) was “statistically significant” and the “Change in ΔPL compared to pretreatment values” (RAO horses [1]; 3rd ciclesonide study, ciclesonide 3712.5 μg once daily in the evening, after 7 days, p=0.001) was “significantly reduced”. The “RL compared to pretreatment values” (RAO horses [1]; 3rd ciclesonide study, ciclesonide 3712.5n (once daily in the evening), after 14 days, p=0.0001) was “significantly reduced”, the “Lung function variables compared to pretreatment values and to placebo group” value (RAO horses [1]; 3rd ciclesonide study, ciclesonide treatment groups, after 14 days) was “significantly reduced” and the “Efficacy relative to dexamethasone measured in lung function variables and clinical score” value (RAO horses [1]) was “comparable efficacy”. For the same molecule, the Breathing effort score (RAO horses [2]; 1st ciclesonide study, ciclesonide 450/900/1800 μg/horse twice daily, any measured time point) was “no significant changes”, the “Weighted clinical score compared to pretreatment values” (RAO horses [2]; 2nd ciclesonide study, all three ciclesonide groups, after 14 days, p=0.0001 to p<0.0001) was “significantly reduced” and the “Difference in weighted clinical score versus dexamethasone group” value (RAO horses [2]; 2nd ciclesonide study, ciclesonide treatment groups, after 14 days) was “no significant difference”. For the same molecule, the “Weighted clinical score compared to pretreatment values” (RAO horses [2]; 3rd ciclesonide study, ciclesonide 2700 μg twice daily, after 7 and 14 days, p=0.0001 (7 days), p=0.0003 (14 days)) was “significantly reduced” and the “Difference in weighted clinical score versus placebo group” value (RAO horses [2]; 3rd ciclesonide study, ciclesonide treatment groups, after 14 days, p=0.0002 (2700 μg, 3712.5 μg evening), p=0.0006 (3712.5 μg morning)) was “significant difference”.
